Residues, ends and D or L forms follow the SMILES beside them. *: point of attachment. Cbz = O=C(OCc1ccccc1)*
How the values were obtained:
CVB3-GFP = assay type: cell-based, coxsackievirus B3; details: for CVB3 infectivity in control HeLa-Fluc cells: 1 MOI, 8 hpi
CVB3 HA-2BC = experiment: Viral protein degradation in co-transfected 293T cells, Western blot; assay type: cell-based; details: MG132 10 μM at 24 hours post-transfection for 6 hours
From the text: Since TRIM7 binds 2C and 2BC, it was next tested whether TRIM7 targets either protein for degradation. […] 293T cells were co-transfected with plasmids expressing HA-tagged CVB3 viral proteins and 3×Flag-tagged TRIM7 (TRIM7-3F) or Fluc-expressing vector. […] Moreover, proteasome inhibition by MG132 restored HA-2BC protein in the presence of TRIM7 (FIG. 4F). Similar results were obtained with 2BC from other TRIM7-targeted enteroviruses, including EV71 and EVD68, whereas 2BC from TRIM7-insensitive MenV was unaffected (FIGS. 4G-4H). Accordingly, 2BC from EV71, but not MenV, interacted with TRIM7 in pulldown assays (FIG. 4I).
Protein lysate preparation and Western blot. Tissue culture cells were lysed in Nonidet P-40 (NP-40) buffer (50 mM Tris pH 7.4, 150 mM NaCl, 1% (v/v) NP-40, 1 mM EDTA, protease inhibitor cocktail) and incubated on ice for 30 min, followed by centrifugation at 13,000 rpm for 20 min at 4° C. For mouse tissue lysates, fresh tissues were collected in 2 ml round-bottom Eppendorf tubes containing NP40 lysis buffer and cut to small pieces using scissors. Then the tissues were homogenized with a Bullet Blender homogenizer (Next Advanced Inc., Averill Park, NY), and centrifuged at 13,000 rpm for 20 min at 4° C. Western blot analyses were performed as previously described (Mar et al., 2018).

[1] = tested on: vesicular stomatitis virus; assay type: cell-based
[2] = tested on: coxsackievirus B3 (CVB3-GFP); assay type: cell-based; details: HeLa cells, replicate R1; for Percent Infected R1: GFP-positive cells within RFP-positive gate

Molecule	CVB3 infectivity in control HeLa-Fluc cells (CVB3-GFP)	Percent Infected R1 [2] [%]	Z score R1 [2]	other results
c1ccc(CNc2nc(NCc3ccccc3)c3ccccc3n2)cc1 [DBeQ]	modestly reduced	–	–	rescue of CVB3-GFP infection in TRIM7-expressing cells (CVB3-GFP): failed to rescue
CC(C)C[C@@H](C=O)NC(=O)[C@H](CC(C)C)NC(=O)[C@H](CC(C)C)NC(=O)OCc1ccccc1 [MG132] (Cbz-Leu-Leu-Leu-aldehyde)	modestly impaired	–	–	HA-2BC protein in the presence of TRIM7 (CVB3 HA-2BC): restored; rescue of CVB3-GFP infection in TRIM7-expressing cells (CVB3-GFP): striking rescue; rescue of viral replication from transfected CVB3-GFP RNA (CVB3-GFP): rescued; rescue of infection in TRIM7-expressing cells, late addition (CVB3-GFP; added at later time points (post primary translation, >4 hours)): failed to rescue
CO/C1=C\C(C)=C\[C@@H](C)[C@@H](O)[C@@H](C)C/C(C)=C/C=C/[C@H](OC)[C@@H]([C@@H](C)[C@@H](O)[C@H](C)[C@@]2(O)C[C@@H](O)[C@H](C)[C@@H](C(C)C)O2)OC1=O [bafilomycin A1]	no impact	–	–	replication of vesicular stomatitis virus [1]: inhibited
CCN(CC)CCCC(C)Nc1ccnc2cc(Cl)ccc12 (centres unmarked) [chloroquine]	no impact	–	–	replication of vesicular stomatitis virus [1]: inhibited
MKRN2: human RING type E3 ligase expressed from lentiviral vector	–	93.3	0.06	–
RAD18: human RING type E3 ligase expressed from lentiviral vector	–	91.2	0.033	–
RNF5: human RING type E3 ligase expressed from lentiviral vector	–	96.1	0.1	–
RNF20: human RING type E3 ligase expressed from lentiviral vector	–	91.8	0.041	–
RNF40: human RING type E3 ligase expressed from lentiviral vector	–	97.1	0.11	–
RNF126: human RING type E3 ligase expressed from lentiviral vector	–	94.5	0.08	–
TRIM5: human RING type E3 ligase expressed from lentiviral vector	–	56.2	−0.412	–
TRIM21: human RING type E3 ligase expressed from lentiviral vector	–	65.7	−0.291	–
TRIM25: human RING type E3 ligase expressed from lentiviral vector	–	53.7	−0.444	–
